Values quoted from earlier work, collected in paper PMC8468386, “Rapid Identification of Potential Drug Candidates from Multi-Million Compounds’ Repositories. Combination of 2D Similarity Search with 3D Ligand/Structure Based Methods and In Vitro Screening” (Molecules, 2021).

tested on: Complement Component C1s; parameters: method as in PMID 31600984; conditions: C1s inhibitors

Going from `Cc1sc2nc(-c3ccco3)oc(=O)c2c1C` [#17] to `O=c1nc(-c2cccs2)oc2cc(Cl)ccc12` [#21], the IC50 falls from 0.549 µM to 0.241 µM (2.3-fold). The second is the more potent here.

tested on: PDE5; parameters: method as in PMID 21947759; conditions: PDE5 inhibitor first round hit compounds

Going from `CCc1ccccc1OCc1nc2ccc(S(=O)(=O)N3CCOCC3)cc2[nH]1` [compound 1] to `Cn1c(=O)c2c(nc(Oc3cccc(C=NO)c3)n2Cc2ccccc2Cl)n(C)c1=O` [compound 2], the IC50 falls from 3.65 µM to 1.99 µM (1.8-fold).

Compared with `COC(=O)c1sccc1NC(=O)N1CCc2c([nH]c3ccccc23)C1c1ccc(OC)cc1` (stereo not drawn) [compound 4], `COc1ccc(C2c3c(n(C)c4ccccc34)C(=O)N2CC(=O)N2CCN(c3ncccn3)CC2)cc1` (stereo not drawn) [compound 5] is 35-fold higher in IC50: 0.19 µM for the first, 6.74 µM for the second. The first is the more potent here.
